Laboratory results reported in patent US20240384268A1, “Oligonucleotides” (Hudson Institute of Medical Research, priority 2021, published 2024).
In the oligonucleotide strings, read from the 5' end, every base follows the letter of its sugar. An asterisk marks phosphorothioate; unmarked linkages are phosphodiester. Other units and linkages are bracketed, terminal groups are in braces. A string of capitals states the bases alone. d = 2'-deoxy (DNA); m = 2'-O-methyl

Target: T1, TLR8 (Homo sapiens, UniProt Q9NR97)
T1 sequence (Q9NR97 27-1041): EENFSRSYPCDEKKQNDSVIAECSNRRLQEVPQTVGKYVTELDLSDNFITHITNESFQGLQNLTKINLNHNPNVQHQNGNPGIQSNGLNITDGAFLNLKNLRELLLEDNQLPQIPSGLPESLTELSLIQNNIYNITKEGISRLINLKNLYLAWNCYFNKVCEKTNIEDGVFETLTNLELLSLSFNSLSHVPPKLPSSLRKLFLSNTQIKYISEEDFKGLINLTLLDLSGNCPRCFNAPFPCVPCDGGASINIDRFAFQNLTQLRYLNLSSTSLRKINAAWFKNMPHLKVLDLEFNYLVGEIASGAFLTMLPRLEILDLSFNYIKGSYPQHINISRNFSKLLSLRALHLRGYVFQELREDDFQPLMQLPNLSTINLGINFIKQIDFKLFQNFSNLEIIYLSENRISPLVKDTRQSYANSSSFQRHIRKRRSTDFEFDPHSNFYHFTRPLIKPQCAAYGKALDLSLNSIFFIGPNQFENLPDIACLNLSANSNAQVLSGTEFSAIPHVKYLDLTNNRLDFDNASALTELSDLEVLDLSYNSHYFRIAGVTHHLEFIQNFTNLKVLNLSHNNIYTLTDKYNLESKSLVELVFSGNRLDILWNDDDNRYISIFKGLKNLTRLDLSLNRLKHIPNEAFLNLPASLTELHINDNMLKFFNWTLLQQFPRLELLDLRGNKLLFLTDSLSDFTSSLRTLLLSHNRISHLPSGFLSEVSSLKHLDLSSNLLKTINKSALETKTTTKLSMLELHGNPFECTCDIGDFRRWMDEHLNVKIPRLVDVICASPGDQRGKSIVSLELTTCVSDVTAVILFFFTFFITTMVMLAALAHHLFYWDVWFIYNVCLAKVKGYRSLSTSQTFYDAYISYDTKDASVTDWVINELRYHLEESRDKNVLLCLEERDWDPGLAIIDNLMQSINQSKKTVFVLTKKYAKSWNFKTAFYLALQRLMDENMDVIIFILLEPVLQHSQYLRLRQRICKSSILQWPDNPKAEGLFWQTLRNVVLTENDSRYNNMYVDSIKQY
Experiment: HEK-TLR8 NF-κB-luciferase reporter, R848 or Motolimod stimulation (potentiation or inhibition)
Format: cell-based
Set-up: expressed in transfected cells; host or cells: 293XLhTLR8 (HEK293)
Details: for TLR8-500 nM: averaged NF-κB-Luciferase relative to R848: HEK-TLR8, 500 nM ASO, fold increase relative to R848 without ASO (Alharbi et al., 2020); for TLR8 100 nM: MOE-modified ASO at 100 nM; for TLR8 100 nM / TLR8 500 nM: averaged NF-κB-Luciferase relative to R848 condition (fold increase); for TLR8 500 nM: MOE-modified ASO at 500 nM

Row | Substance | TLR8-500 nM: averaged NF-κB-Luciferase relative to R848 [fold] | TLR8 100 nM | TLR8 500 nM
1 | mU*mA*mA*mA*mA*T*A*A*G*G*G*G*A*A*T*mA*mG*mG*mG*mG (mU*mA*mA*mA*mA*dT*dA*dA*dG*dG*dG*dG*dA*dA*dT*mA*mG*mG*mG*mG) [[CDKN2B-AS1]80] | 1.30 |  | 
2 | mA*mG*mG*mC*mC*T*C*C*A*G*T*G*T*C*T*mU*mC*mU*mC*mC (mA*mG*mG*mC*mC*dT*dC*dC*dA*dG*dT*dG*dT*dC*dT*mU*mC*mU*mC*mC; antisense) [[CDKN2B-AS1]2218] | 4.66 |  | 
3 | mC*mA*mU*mC*mC*C*T*T*C*T*G*C*T*G*C*mC*mA*mA*mG*mC (mC*mA*mU*mC*mC*dC*dT*dT*dC*dT*dG*dC*dT*dG*dC*mC*mA*mA*mG*mC; antisense) [[LINC-PINT]98] | 8.23 |  | 
4 | mA*mG*mG*mA*mU*T*A*A*A*A*C*A*G*A*T*mU*mA*mA*mU*mA (mA*mG*mG*mA*mU*dT*dA*dA*dA*dA*dC*dA*dG*dA*dT*mU*mA*mA*mU*mA) [[CDKN2B-AS1] 1775] | 2.63 |  | 
5 | mG*mG*mU*mC*mC*C*A*T*C*C*C*T*T*C*T*mG*mC*mU*mG*mC (GGUCCCATCCCTTCTGCUGC; sugars from the 5' end m5 d10 m5, all phosphorothioate, methylation of C not given here) [[LINC-PINT]103] | 1.87 |  | 
6 | mU*mC*mU*mG*mG*T*C*C*C*A*T*C*C*C*T*mU*mC*mU*mG*mC (UCUGGTCCCATCCCTUCUGC; antisense; sugars from the 5' end m5 d10 m5, all phosphorothioate, methylation of C not given here) [[LINC-PINT]106] | 5.25 |  | 
7 | mU*mC*mC*mC*mA*A*C*T*C*T*T*C*T*A*A*mC*mU*mC*mG*mU (mU*mC*mC*mC*mA*dA*dC*dT*dC*dT*dT*dC*dT*dA*dA*mC*mU*mC*mG*mU; antisense) [[LINC-PINT]1284 KL] | 13.35 |  | 
8 | TCCGGCCTCGGAAGCTCTCT (antisense; 2'-MOE modified, pattern not given here) [MB21D1-168 MOE] |  | 0.816 | 0.781
9 | TGGGTTACGGCTCAGTATGG (antisense; 2'-MOE modified, pattern not given here) [CAMSAP1-4295 MOE] |  | 1.610 | 1.538
10 | mU*mG*mU*mG*mA*A*A*A*G*A*T*T*A*T*C*mU*mU*mC*mU*mU (UGUGAAAAGATTATCUUCUU; sugars from the 5' end m5 d10 m5, all phosphorothioate, methylation of C not given here) [[CDKN2B-AS1]2137] | 4.97 |  | 
11 | mC*mU*mC*mU*mC*T*G*G*T*C*C*C*A*T*C*mC*mC*mU*mU*mC (mC*mU*mC*mU*mC*dT*dG*dG*dT*dC*dC*dC*dA*dT*dC*mC*mC*mU*mU*mC; antisense) [[LINC-PINT]109] | 10.10 |  | 
12 | mU*mC*mC*mC*mA*T*C*C*C*T*T*C*T*G*C*mU*mG*mA*mC*mA (UCCCATCCCTTCTGCUGACA; sugars from the 5' end m5 d10 m5, all phosphorothioate, methylation of C not given here) [[LINC-PINT]101] | 10.88 |  | 
13 | mC*mU*mU*mU*mA*T*A*T*T*A*C*A*A*A*G*mC*mU*mA*mC*mU (mC*mU*mU*mU*mA*dT*dA*dT*dT*dA*dC*dA*dA*dA*dG*mC*mU*mA*mC*mU; antisense) [[LINC-PINT]2755] | 6.37 |  | 
14 | mU*mG*mA*mC*mA*A*A*A*C*A*A*T*A*A*T*mA*mA*mC*mA*mG (mU*mG*mA*mC*mA*dA*dA*dA*dC*dA*dA*dT*dA*dA*dT*mA*mA*mC*mA*mG) [[LINC-PINT]384] | 2.57 |  | 
15 | mG*mG*mU*mC*mU*C*C*T*C*C*A*C*A*C*C*mC*mU*mU*mC*mU (mG*mG*mU*mC*mU*dC*dC*dT*dC*dC*dA*dC*dA*dC*dC*mC*mU*mU*mC*mU; antisense) [[LINC-PINT]127] | 3.72 |  | 
16 | mC*mC*mU*mU*mC*T*G*C*T*G*C*C*A*A*G*mC*mC*mC*mC*mA (mC*mC*mU*mU*mC*dT*dG*dC*dT*dG*dC*dC*dA*dA*dG*mC*mC*mC*mC*mA; antisense) [[LINC-PINT]94] | 3.71 |  | 

Row | Substance | TLR8-500 nM: averaged NF-κB-Luciferase relative to R848 [fold] | TLR8 100 nM | TLR8 500 nM
17 | mA*mA*mA*mU*mG*T*C*C*T*G*G*C*C*C*T*mC*mA*mC*mU*mG (mA*mA*mA*mU*mG*dT*dC*dC*dT*dG*dG*dC*dC*dC*dT*mC*mA*mC*mU*mG) [[LINC-PINT]148.1] | 1.56 |  | 
18 | mG*mC*mA*mA*mG*G*C*A*G*A*G*A*A*A*C*mU*mC*mC*mA*mG (GCAAGGCAGAGAAACUCCAG; sugars from the 5' end m5 d10 m5, all phosphorothioate, methylation of C not given here) [[LINC-PINT]1315 KL] | 2.69 |  | 
19 | mG*mU*mC*mC*mC*A*G*G*C*C*T*C*C*A*G*mU*mG*mU*mC*mU (mG*mU*mC*mC*mC*dA*dG*dG*dC*dC*dT*dC*dC*dA*dG*mU*mG*mU*mC*mU; antisense) [[CDKN2B-AS1]2223] | 2.17 |  | 
20 | GGGTATCGAAAGAGTCTGGA (antisense; 2'-MOE modified, pattern not given here) [EGFR-3908 MOE] |  | 3.138 | 4.073
21 | mU*mU*mA*mG*mC*T*C*C*T*T*G*C*C*T*C*mG*mU*mU*mC*mC (mU*mU*mA*mG*mC*dT*dC*dC*dT*dT*dG*dC*dC*dT*dC*mG*mU*mU*mC*mC; antisense) [[LINC-PINT] 1222] | 8.41 |  | 
22 | mA*mU*mA*mU*mC*T*G*C*T*G*C*C*C*A*C*mC*mU*mU*mC*mU (AUAUCTGCTGCCCACCUUCU; antisense; sugars from the 5' end m5 d10 m5, all phosphorothioate, methylation of C not given here) [[CDKN2B-AS1]831] | 5.89 |  | 
23 | mU*mC*mU*mC*mU*C*T*G*G*T*C*C*C*A*T*mC*mC*mC*mU*mU (mU*mC*mU*mC*mU*dC*dT*dG*dG*dT*dC*dC*dC*dA*dT*mC*mC*mC*mU*mU; antisense) [[LINC-PINT]110] | 11.27 |  | 
24 | mG*mU*mC*mC*mG*T*A*C*C*T*C*C*A*C*C*mC″mA*mC*mC*mG [[LINC-PINT]727.1] | 3.70 |  | 
25 | mU*mU*mG*mG*mC*C*T*G*T*G*G*A*T*G*C*mU*mU*mU*mG*mU (mU*mU*mG*mG*mC*dC*dT*dG*dT*dG*dG*dA*dT*dG*dC*mU*mU*mU*mG*mU) [[LINC-PINT]2673.1] | 0.94 |  | 
26 | mA*mA*mG*mG*mU*G*G*C*C*A*C*A*G*G*C*mA*mA*mC*mG*mU (mA*mA*mG*mG*mU*dG*dG*dC*dC*dA*dC*dA*dG*dG*dC*mA*mA*mC*mG*mU; antisense) [[CDKN2B-AS1]2198] | 0.78 |  | 
27 | mG*mG*mG*mU*mC*T*C*C*T*C*C*A*C*A*C*mC*mC*mU*mU*mC (GGGUCTCCTCCACACCCUUC; antisense; sugars from the 5' end m5 d10 m5, all phosphorothioate, methylation of C not given here) [[LINC-PINT]128] | 1.23 |  | 
28 | mA*mA*mG*mA*mU*T*A*T*C*T*T*C*T*T*T*mU*mA*mA*mU*mU (mA*mA*mG*mA*mU*dT*dA*dT*dC*dT*dT*dC*dT*dT*dT*mU*mA*mA*mU*mU) [[CDKN2B-AS1]2131] | 5.62 |  | 
29 | mC*mC*mA*mU*mC*C*C*T*T*C*T*G*C*T*G*mC*mC*mA*mA*mG (mC*mC*mA*mU*mC*dC*dC*dT*dT*dC*dT*dG*dC*dT*dG*mC*mC*mA*mA*mG; antisense) [ILING-PINT199] | 5.67 |  | 
30 | TGGCAGGCTCAGTGATGTCT (antisense; 2'-MOE modified, pattern not given here) [CTNN2B-1642 MOE] |  | 1.074 | 0.973
31 | mG*mA*mU*mU*mA*A*A*A*C*A*G*A*T*T*A*mA*mU*mA*mC*mA (mG*mA*mU*mU*mA*dA*dA*dA*dC*dA*dG*dA*dT*dT*dA*mA*mU*mA*mC*mA) [[CDKN2B-AS1]1773] | 1.48 |  | 
